# Source: patent US5952189A (priority 1997, dated 1999)
# Entries after “also recorded” stand apart in the source; their conditions may differ. Like-named read-outs stand apart in the source and are kept apart here.
# How the values were obtained:
# U937 cells = experiment: cells; format: cell-based, human
# BT-20 = format: cell-based, human; conditions: for % DNA fragmentation: BT-20, UV 0.5 J/cm^2, 8 h, no inhibitor 44 ± 3.6
# 3T3 = experiment: Inhibition of UV-induced DNA fragmentation in 3T3 cells; format: cell-based, murine; conditions: UV 0.5 J/cm^2, 8 h, no inhibitor 38 ± 1.9
# Description: To determine if these findings were unique to U937 or if other cell lines also require protease activity to undergo apoptosis, the effects of several inhibitors on apoptosis induced by UV light in the human mammary carcinoma, BT-20, the murine fibroblast cell line, 3T3, and the human myeloid leukemia, HL-60 were tested. For the BT-20 and 3T3 cells, target cells were pretreated for one hour (with or without inhibitors as indicated in the table) and exposed to UV light at 0.5 J/cm^2 and then incubated for eight hours prior to assessing DNA fragmentation. HL-60 cells were pretreated for one hour (with or without inhibitors as indicated in the table) and exposed to UV at 0.2 J/cm^2 and then incubated for two hours prior to assessing DNA fragmentation.
# DNA fragmentation assays were carried out according to the protocol of Wright S. C., et al. (1,992) J. Cell. Biochem. 48, 344-355. Target cells were labeled with ^3 H-thymidine and plated in triplicate in flat bottom microtiter plates. Cells were incubated for the indicated length of time for each experiment in the presence of TNF or various inhibitors. In some experiments, cells were treated with UV light at 245 nm using a UV Crosslinker (Fisher Scientific). Assays were harvested and counted on a Packard matrix 96 beta counter. Percent DNA fragmentation was calculated as for the nuclear assay described in Example 3. In assays to test the effects of various inhibitors, the pH of extra wells containing assay buffer, target cells, and each inhibitor was always checked at the beginning and end of each assay to assure that the pH remained at 7.5.
# isolated U937 nuclei = experiment: DNA fragmentation assay using isolated U937 nuclei; format: cell-based, human; conditions: inhibitor 50 μM (FIG. 6B)
# Description: U937 cells were labeled with ^3 H-thymidine by culturing overnight with isotope at 0.5 μCi/ml. The cells were pelleted, washed once, and the cytoplasmic membrane lysed by resuspending the cells in assay buffer (50 mM Tris, 250 mM sucrose 10 mM MgSO4, pH 7.5) plus 0.02% NP-40. Nuclei were then pelleted and resuspended in assay buffer at 1×10^6 /ml. The assay was set up in triplicate in flat bottom microtiter plates under sterile conditions. Nuclei (0.05 ml) were mixed with 0.05 ml of sample diluted in 50 mM Tris pH 7.5 or buffer alone to determine total counts. Plates were incubated for 5 h at 37° C. and then harvested by the addition of 0.1 ml of harvesting buffer (10 mM Tris, 10 mM EDTA, 0.3% Triton X-100, pH 7.5). Plates were harvested by filtration onto glass fiber paper and counted on a Packard Matrix 96 beta counter. Percent DNA fragmentation was calculated as follows: […]
# [1] = system: anti-Fas-induced hepatocyte apoptosis; experiment: Anti-Fas induced hepatotoxicity in mice (serum transaminases); format: in vivo
# Description: It has been previously shown that injection of mice with antibodies directed against the Fas antigen causes hepatocyte apoptosis and death due to liver failure (Ogasawara et al. (1993) Nature 364:806-809). Therefore, the effects of administration of DK120 to mice injected with antibodies directed against the murine Fas antigen were tested.
# ^1 Mice (2 for each treatment) were injected ip +/- DK120 30 min prio
# to antiFas antibodies. Twelve h later serum transaminase levels were […]
# [2] = system: SEB-induced hepatotoxicity; format: in vivo, mice; conditions: Gln + SEB + DK120 5 mg/kg
# mice = experiment: Toxicity of DK120 in mice on daily injection; format: in vivo
# Description: In preliminary studies daily injection of mice with DK120 at 20 mg/kg was lethal. The reason for toxicity is not clear but may be related to the ability of DK120 to inhibit chymotrypsin-like enzymes that may be essential for the normal function of various tissues.
# [3] = system: LPS-induced hepatotoxicity
# [4] = system: chymotrypsin-like enzymes; conditions: cited from earlier work
smiles,measurement,setting,value
"C[C@H](NC(=O)OCc1ccccc1)C(=O)N[C@@H](C)C(=O)NC(Cc1ccccc1)B(O)O (stereo partly drawn) [DK120, carbobenzoxy-ala-ala-borophe]",IC50,"U937 cells; Homo sapiens, U-937, read-out: IC50 (Active Concentration), TNF and UV-light induced apoptosis",1200 nM
same,Concentration of maximum suppression of DNA fragmentation,"U937 cells; U937, TNF 1.0 ng/ml plus cycloheximide or UV 0.1 J/cm^2, 1 h pretreatment (FIG. 1)",2.0 µM
same,Effect on DNA fragmentation induced by TNF or UV light,"U937 cells; U937 cells, result in words",suppressed DNA fragmentation; also recorded: dose-dependently inhibit DNA fragmentation
same,% DNA fragmentation,BT-20; inhibitor 0.2 μM,5 ± 8.7%
same,% DNA fragmentation,BT-20; inhibitor 1 μM,0%
same,% DNA fragmentation,BT-20; inhibitor 5 μM,0%
same,Effect on UV-induced DNA fragmentation,"BT-20; summary of Table 2 (BT-20, 3T3, HL-60)",effectively blocked DNA fragmentation
same,% DNA fragmentation,3T3; inhibitor 1 μM,24 ± 0.3%
same,% DNA fragmentation,3T3; inhibitor 5 μM,19 ± 1.9%
same,Inhibition of nuclear DNA fragmenting activity of protease from UV-treated cells,isolated U937 nuclei,inhibited
same,AST,"[1]; DK120 5 mg/kg ip 30 min prior to anti-Fas, 12 h, without DK120 81",121 U/ml
same,ALT,"[1]; DK120 5 mg/kg ip 30 min prior to anti-Fas, 12 h, without DK120 513",746 U/ml
same,Effect on anti-Fas induced elevation of serum transaminases,"[1]; mouse, in vivo",did not counteract the elevation of serum transaminases induced by anti-Fas antibodies
same,% Mortality,[2]; without DK120 33,0%
same,AST,[2]; without DK120 119,72 +/- 13 U/ml
same,ALT,[2]; without DK120 339,205 +/- 28 U/ml
same,Lethality,"mice; daily injection, 20 mg/kg, preliminary studies",lethal
same,Toxicity of compound alone,"mice; mouse, in vivo",relatively toxic
same,% Mortality,"[3]; Gln + LPS + DK120 5 mg/kg, without DK120 33",0%
same,AST,"[3]; Gln + LPS + DK120 5 mg/kg, without DK120 100",79 +/- 10 U/ml
same,ALT,"[3]; Gln + LPS + DK120 5 mg/kg, without DK120 334",182 +/- 17 U/ml
same,Effect on serum transaminase levels after LPS or SEB,"[3]; LPS or SEB plus Gln, DK120 30 min prior",significant reduction in the serum transaminase levels
same,"Effect on LPS-induced mortality, long term survival (FIG. 9)","[3]; mouse, in vivo",could delay or prevent LPS-induced mortality
same,Inhibition of chymotrypsin / chymotrypsin-like enzymes,[4],reversible inhibitor of chymotrypsin; also recorded: potently inhibits chymotrypsin-like enzymes
